Data reported in PubChem BioAssay AID330 (DTP/NCI, 2004).
“And” between values parts separate entries of the source, which are not always exact repeats. Identical values can stand only once. Toxic doses and inconclusive results are not listed. How the source made its calls: active means survival T/C of 150% or more; inactive means T/C below 125% in these data.

System: P388 leukemia ip, CD2F1 mice, survival T/C
Experiment: NCI In Vivo Anticancer Drug Screen. Data for tumor model P388 Leukemia (intraperitoneal) in CD2F1 (CDF1) mice
Details: endpoint: median survival time, higher = longer survival
In short: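 Mice carrying the transplanted tumor received test compound or vehicle. Survival was recorded in each group, and the value is the treated-group measurement divided by that of the vehicle-treated control group.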

[1] = dose: 50.0 mg/kg/injection, schedule: Q01DX009 (ip), vehicle: Klucel (hydroxypropylcellulose) (HPC)
[2] = dose: 100.0 mg/kg/injection, schedule: Q01DX009 (ip), vehicle: Klucel (hydroxypropylcellulose) (HPC)
[3] = dose: 200.0 mg/kg/injection, schedule: Q01DX009 (ip), vehicle: Klucel (hydroxypropylcellulose) (HPC)
[4] = dose: 60.0 mg/kg/injection, schedule: Q01DX005 (ip), vehicle: saline with Tween-80
[5] = dose: 120.0 mg/kg/injection, schedule: Q01DX005 (ip), vehicle: saline with Tween-80
[6] = dose: 240.0 mg/kg/injection, schedule: Q01DX005 (ip), vehicle: saline with Tween-80
[7] = dose: 50.0 mg/kg/injection, schedule: Q01DX005 (ip), vehicle: Klucel (hydroxypropylcellulose) (HPC)
[8] = dose: 100.0 mg/kg/injection, schedule: Q01DX005 (ip), vehicle: Klucel (hydroxypropylcellulose) (HPC)
[9] = dose: 200.0 mg/kg/injection, schedule: Q01DX005 (ip), vehicle: Klucel (hydroxypropylcellulose) (HPC)
[10] = dose: 100.0 mg/kg/injection, schedule: Q01DX001 (ip), vehicle: Klucel (hydroxypropylcellulose) (HPC)
[11] = dose: 100.0 mg/kg/injection, schedule: Q01DX009 (ip), vehicle: saline with Tween-80
[12] = dose: 200.0 mg/kg/injection, schedule: Q01DX009 (ip), vehicle: saline with Tween-80
[13] = dose: 50.0 mg/kg/injection, schedule: Q01DX005 (ip), vehicle: saline with Tween-80
[14] = dose: 100.0 mg/kg/injection, schedule: Q01DX005 (ip), vehicle: saline with Tween-80
[15] = dose: 200.0 mg/kg/injection, schedule: Q01DX005 (ip), vehicle: saline with Tween-80
[16] = dose: 200.0 mg/kg/injection, schedule: Q01DX001 (ip), vehicle: Klucel (hydroxypropylcellulose) (HPC)
[17] = dose: 400.0 mg/kg/injection, schedule: Q01DX001 (ip), vehicle: Klucel (hydroxypropylcellulose) (HPC)
[18] = dose: 50.0 mg/kg/injection, schedule: Q01DX009 (ip), vehicle: saline with Tween-80
[19] = dose: 60.0 mg/kg/injection, schedule: Q01DX005 (ip), vehicle: Klucel (hydroxypropylcellulose) (HPC)
[20] = dose: 240.0 mg/kg/injection, schedule: Q01DX005 (ip), vehicle: Klucel (hydroxypropylcellulose) (HPC)
[21] = dose: 100.0 mg/kg/injection, schedule: Q04DX003 (ip), vehicle: Klucel (hydroxypropylcellulose) (HPC)
[22] = dose: 200.0 mg/kg/injection, schedule: Q04DX003 (ip), vehicle: Klucel (hydroxypropylcellulose) (HPC)
[23] = dose: 400.0 mg/kg/injection, schedule: Q04DX003 (ip), vehicle: Klucel (hydroxypropylcellulose) (HPC)

Measured: T/C

Cc1noc2c1N=C(c1ccccc1O)CC(c1ccccc1)C2 (configuration not stated)
inactive: [1] 100 % of control | [2] 110 % of control | [3] 99 % of control

[Cu+2].[O-]/N=C/c1ccc(O)c(O)c1[O-].[O-]/N=C/c1ccc(O)c(O)c1[O-]
inactive: [4] 91 % of control | [5] 87 % of control | [6] 89 % of control

O=C(/C=C/c1ccccc1)/C=C/c1ccccc1 (tested in a mixture with another compound)
inactive: [4] 98 % of control | [5] 91 % of control | [6] 91 % of control

NNC(=O)C1C2c3ccccc3C(c3ccccc32)C1C(=O)O (configuration not stated)
inactive: [4] 99 % of control | [5] 101 % of control | [6] 103 % of control

O=C(CSC(c1ccccc1)(c1ccccc1)c1ccccc1)c1ccc([N+](=O)[O-])cc1
inactive: [7] 100 % of control | [8] 105 % of control | [9] 95 % of control

O=C1C=C2CCCCCCCCCCC2CC1 (configuration not stated)
inactive: [7] 103 % of control | [8] 92 % of control | [9] 92 % of control

CN1CCC(O)(c2nccc3ccccc23)CC1
inactive: dose: 50.0 mg/kg/injection, schedule: Q01DX001 (ip), vehicle: Klucel (hydroxypropylcellulose) (HPC) 111 % of control | [10] 96 % of control

CNS(=O)(=O)c1ccc2c(c1)nc(SC)n2C
inactive: [11] 100 % of control | [12] 100 % of control | dose: 400.0 mg/kg/injection, schedule: Q01DX009 (ip), vehicle: saline with Tween-80 95 % of control

Cl.O=C([O-])C1C[SH+]C(C(O)C(O)C(O)C(O)CO)N1.O=C([O-])C1C[SH+]C(C(O)C(O)C(O)C(O)CO)N1.[Pd+2] (configuration not stated)
inactive: dose: 100.0 mg/kg/injection, schedule: Q01DX001 (ip), vehicle: saline 103 % of control | dose: 200.0 mg/kg/injection, schedule: Q01DX001 (ip), vehicle: saline 104 % of control | dose: 400.0 mg/kg/injection, schedule: Q01DX001 (ip), vehicle: saline 95 % of control

CC1OCC(Br)([N+](=O)[O-])CO1 (configuration not stated)
inactive: dose: 3.12 mg/kg/injection, schedule: Q01DX009 (ip), vehicle: saline with Tween-80 104 % of control and 110 % of control | dose: 6.25 mg/kg/injection, schedule: Q01DX009 (ip), vehicle: saline with Tween-80 108 % of control and 112 % of control | dose: 12.5 mg/kg/injection, schedule: Q01DX009 (ip), vehicle: saline with Tween-80 100 % of control and 103 % of control and 113 % of control

NC(N)=N/N=C/c1ccc[nH]1
inactive: [13] 104 % of control | [14] 106 % of control | [15] 104 % of control

NC(=S)N/N=C/c1c(-c2ccc(Cl)cc2)nc2sccn12
inactive: [10] 96 % of control | [16] 95 % of control | [17] 96 % of control

CCC1=CCC2C(=O)C3C(C(=O)C2C1)C1(c2ccccc2)OC3(c2ccccc2)c2ccccc21 (configuration not stated)
inactive: [18] 95 % of control | [11] 88 % of control | [12] 87 % of control

CNC(=O)CC(=O)NC
inactive: dose: 100.0 mg/kg/injection, schedule: Q04DX003 (ip), vehicle: suspension in saline 93 % of control | dose: 200.0 mg/kg/injection, schedule: Q04DX003 (ip), vehicle: suspension in saline 100 % of control | dose: 400.0 mg/kg/injection, schedule: Q04DX003 (ip), vehicle: suspension in saline 95 % of control

COc1cccc(/C=C(\NC(=O)c2ccccc2)c2nc3ccccc3s2)c1
inactive: [13] 110 % of control | [14] 116 % of control | [6] 116 % of control

COc1ccc2oc(=O)n(N=C(C)C)c(=O)c2c1
inactive: [19] 97 % of control | dose: 120.0 mg/kg/injection, schedule: Q01DX005 (ip), vehicle: Klucel (hydroxypropylcellulose) (HPC) 95 % of control | [20] 94 % of control

CCOP(=O)(Nc1ccc2c(c1)Cc1c-2cc(Br)c(NC(C)=O)c1Br)OCC
inactive: [7] 94 % of control | [8] 94 % of control | [9] 96 % of control

COc1ccc(CCN2C(=O)CCC3=C2CCC3=O)cc1OC
inactive: dose: 25.0 mg/kg/injection, schedule: Q01DX005 (ip), vehicle: Klucel (hydroxypropylcellulose) (HPC) 100 % of control | [7] 98 % of control | [8] 100 % of control | [9] 106 % of control

COc1cc(/C=C2\SC(=S)N(CCCN3CCOCC3)C2=O)ccc1O
inactive: [18] 91 % of control

COC1C(/C=[N+](\[O-])C2C(C3COC(C)(C)O3)OC3OC(C)(C)OC32)OC2OC(C)(C)OC21 (configuration not stated)
inactive: [1] 100 % of control | [2] 103 % of control | [3] 105 % of control

O=[N+]([O-])c1ccc(SN2CCCCC2)c([N+](=O)[O-])c1
inactive: [13] 100 % of control | [14] 100 % of control | [15] 105 % of control

Cc1csc(Cl)c1NC1=NCCN1
inactive: dose: 50.0 mg/kg/injection, schedule: Q01DX005 (ip), vehicle: saline 104 % of control | dose: 100.0 mg/kg/injection, schedule: Q01DX005 (ip), vehicle: saline 107 % of control

Cc1cc(=O)n2c(-c3ccccc3)csc2n1
inactive: [21] 101 % of control | [22] 110 % of control | [23] 113 % of control

O=C(Nc1ccc(Cl)cc1)Nc1nnc(-c2cccc(Cl)c2)o1
inactive: dose: 7.5 mg/kg/injection, schedule: Q01DX005 (ip), vehicle: saline with Tween-80 95 % of control | dose: 15.0 mg/kg/injection, schedule: Q01DX005 (ip), vehicle: saline with Tween-80 90 % of control and 93 % of control | [4] 89 % of control | [6] 91 % of control

Cc1cccc(NC(=O)CCc2ccc(N3C(N)=NC(N)=NC3(C)C)cc2)c1
inactive: [18] 118 % of control | dose: 50.0 mg/kg/injection, schedule: Q04DX003 (ip), vehicle: saline sonified 118 % of control | dose: 100.0 mg/kg/injection, schedule: Q04DX003 (ip), vehicle: saline sonified 113 % of control | dose: 132.0 mg/kg/injection, schedule: Q01DX009 (ip), vehicle: saline with Tween-80 118 % of control | dose: 200.0 mg/kg/injection, schedule: Q04DX003 (ip), vehicle: saline sonified 118 % of control

COC(=O)C1(CC(=O)/C=C/c2ccccc2)NC(=S)NC(=O)C1C#N (configuration not stated)
inactive: dose: 30.0 mg/kg/injection, schedule: Q01DX005 (ip), vehicle: Klucel (hydroxypropylcellulose) (HPC) 102 % of control | [19] 91 % of control and 92 % of control | [20] 92 % of control

O=C(c1ccccc1)N(C(=S)N(C(=O)c1ccccc1)c1ccccc1)c1ccccc1
inactive: [4] 100 % of control | [5] 91 % of control | [6] 95 % of control

COc1ccc(N=Nc2c(O)n(-c3ccccc3Cl)c(=S)n(-c3ccc(C)cc3)c2=O)cc1
inactive: [10] 105 % of control | [16] 97 % of control | [17] 102 % of control

COC1CC(O)(CC#N)C(OC(=O)c2ccc([N+](=O)[O-])cc2)C(COC(=O)c2ccc([N+](=O)[O-])cc2)O1 (configuration not stated)
inactive: [21] 94 % of control | [22] 101 % of control | [23] 104 % of control
